Experimental data reported in patent publication US7422863B2, “Molting hormone receptor and method for screening ligand to the receptor” (Kumiai Chemical Industry Co., Ltd., priority 2003, dated 2008).
Entries after “also recorded” stand apart in the source; their conditions may differ.

Key:
Set-up in all cases: species or system Spodoptera litura
EcR-DF/USP-AE complex [1] = assay: Screening system: inhibition of [3H]ponasterone A binding to the complex by test compounds; details: for activity of binding to the EcR-DF/USP-AE complex: endocrine disrupters and female hormone, FIG. 25; for inhibition of the binding of [3H]ponasterone A to the complex: concentration of test compound changed, FIG. 24; for activity of binding to the complex: test compound 10,000 times stronger than [3H]ponasterone A
Description: In Example 7, a screening system used for screening an insect inhibitor was constructed based on the results of Examples 1 to 6. As described in Examples 1 to 6, when binding analysis was carried out using ponasterone A as an ecdysone agonist, ponasterone A binding to a complex consisting of EcR-DF and USP-AE was observed. In order to confirm whether or not this system functions as a screening system, the binding of the complex to other ecdysone agonists should also be observed. Thus, using 20-hydroxyecdysone that is an ecdysone active in living insect bodies and tebufenozide (RH-5992) that is a synthetic ecdysone agonist, the binding experiment was carried out between the […] and each of the above compounds.
First, EcR-DF and USP-AE were mixed into a binding buffer, and [^3H]ponasterone A was then added thereto in the same manner as in Example 4. Also, the same experiment was carried out with the exception that 20-hydroxyecdysone or tebufenozide that was 10,000 times stronger than [^3H]ponasterone A was added thereto, so as to obtain nonspecific binding. […] Thus, the same experiment was carried out while the concentration of 20-hydroxyecdysone or tebufenozide was changed.
Subsequently, in the present example, using a screening system in which ability to bind to the EcR-DF/USP-AE complex is used as an index, 4 types of compounds were evaluated in terms of such binding ability. As compounds to be evaluated, 4-nonylphenol, stilbestrol, and diethyl phthalate (endocrine disrupters), and estradiol-17β (female hormone) were used.

EcR-DF and USP-AE = assay: [3H]ponasterone A binding experiment using COS-7 cell extracts
Description: (§1) Each expression plasmid DNA was independently introduced into COS-7 cells. 48 hours later, each extract was prepared from the cells. In addition, plasmid DNA into which EcR-AF had been inserted and plasmid DNA into which USP-AE had been inserted were co-introduced into COS-7 cells, and an extract was then prepared in the same manner. Moreover, plasmid DNA into which, EcR-DF had been inserted and plasmid DNA into which USP-AE had been inserted were co-introduced into COS-7 cells, and an extract was then prepared in the same manner. Furthermore, plasmid DNA into which EcR-AF had been inserted and plasmid DNA into which USP-DE had been inserted were co-introduced into COS-7 cells, and an extract was then prepared in the same manner. Further, plasmid DNA into which EcR-DF had been inserted and plasmid DNA into which USP-DE had been inserted were co-introduced into COS-7 cells, and an extract was then prepared in the same manner. The expression of a product of interest in the COS-7 cells was confirmed by Western blotting using an anti-FLAG antibody.
(§2) By the aforementioned operations, 4 types of extracts containing each of EcR-AF, EcR-DF, USP-AE, and USP-DE, an extract containing the coexpressed EcR-AF and USP-AE, an extract containing the coexpressed EcR-DF and USP-AE, an extract containing the coexpressed EcR-AF and USP-DE, and an extract containing the coexpressed EcR-DF and USP-DE, were prepared.
(§3) In order to prevent the non-specific binding of ponasterone A to a receptor (a complex consisting of an EcR recombinant and a USP recombinant), 1% BSA was first added to a binding buffer (20 mM HEPES (pH7.4)/5 mM DTT/1 nM PMSF). Thereafter, USP-AE or USP-DE was mixed with the EcR-AF, EcR-DF, EcR-DE, EcR-EF, or EcR-E, purified in Example 2. Thereafter, [^3H]ponasterone A ([24, 25, 26, 27-3H] Ponasterone A (American Radiolabeled Chemicals Inc.)) with a final concentration of 1.37 nM was further added thereto. The obtained mixture was reacted at 25° C. 40 minutes later, the reaction was terminated by addition of 200 μl of an activated carbon solution (0.5% Charcoal, dextran coated (SIGMA)/20 mm HEPES/50 mM NaCl). A supernatant fraction obtained after centrifugation was mixed with a liquid scintillator, and the radioactivity (DPM) of the obtained mixture was measured using a liquid scintillation counter (ALOKA LSC-5100). The obtained measurement value was defined as the total binding amount. Moreover, the same experiment was carried out with the exception that nonradioactive ponasterone A that was 10,000 times stronger than [^3H]ponasterone A was added. Then, the amount of a ligand non-specifically binding to a receptor was obtained. […]

EcR-DF and USP-DE = assay: as above
Description: as §1, §2, §3

[2] = test system: complex consisting of EcR-DF and USP-AE; assay: [3H]ponasterone A binding experiment, charcoal dextran method, recombinants expressed in Escherichia coli
Description: (§4) In Example 4, in order to separate a binding form from a free form, the charcoal dextran method was applied. This is a common method applied when a steroid hormone is used as a ligand. By adding an activated carbon solution coated with dextran to a reaction solution when the reaction is terminated, a ligand that has not bound to a receptor is adsorbed on the activated carbon. Thereafter, the reaction solution is centrifuged, thereby separating an activated carbon fraction (precipitate fraction) from a supernatant fraction in which a receptor/ligand complex exists.
In order to prevent the non-specific binding of ponasterone A to a receptor (a complex consisting of an EcR recombinant and a USP recombinant), 1% BSA was first added to a binding buffer (20 mM HEPES (pH7.4)/5 mM DTT/1 nM PMSF). Thereafter, USP-AE or USP-DE was mixed with the EcR-AF, EcR-DF, EcR-DE, EcR-EF, or EcR-E, purified in Example 2. Thereafter, [^3H]ponasterone A ([24, 25, 26, 27-3H] Ponasterone A (American Radiolabeled Chemicals Inc.)) with a final concentration of 1.37 nM was further added thereto. The obtained mixture was reacted at 25° C. 40 minutes later, the reaction was terminated by addition of 200 μl of an activated carbon solution (0.5% Charcoal, dextran coated (SIGMA)/20 mm HEPES/50 mM NaCl). A supernatant fraction obtained after centrifugation was mixed with a liquid scintillator, and the radioactivity (DPM) of the obtained mixture was measured using a liquid scintillation counter (ALOKA LSC-5100). The obtained measurement value was defined as the total binding amount. Moreover, the same experiment was carried out with the exception that nonradioactive ponasterone A that was 10,000 times stronger than [^3H]ponasterone A was added. Then, the amount of a ligand non-specifically binding to a receptor was obtained. The amount of a ligand specifically binding to a receptor was defined as a value obtained by subtracting the non-specific binding amount from the total binding amount.
The optimal reaction time for a binding reaction between a complex consisting of EcR-DF and USP-AE and a ligand was analyzed as follows. First, USP-AE with various types of concentrations was added to a certain amount of EcR-DF, and the obtained mixture was then reacted at 25° C. for 40 minutes in a water bath. The concentration of ponasterone A in the reaction solution was set at 1.34 nM. […]
The optimal reaction time for a binding reaction between a complex consisting of EcR-DF and USP-AE and a ligand was analyzed as follows. […]
The optimal reaction temperature for a binding reaction between a complex consisting of EcR-DF and USP-AE and a ligand was analyzed as follows. […]

[3] = test system: EcR-AF combined with USP-AE or USP-DE; assay: [3H]ponasterone A binding experiment with full-length EcR recombinant
Description: as §1, with “The expression of a product of interest in the COS-7 cells was confirmed by Western blotting using an anti-FLAG antibody.” left out
In order to prevent the non-specific binding of ponasterone A to a receptor (a complex consisting of an EcR recombinant and a USP recombinant), 1% BSA was first added to a binding buffer (20 mM HEPES (pH7.4)/5 mM DTT/1 nM PMSF). […] A supernatant fraction obtained after centrifugation was mixed with a liquid scintillator, and the radioactivity (DPM) of the obtained mixture was measured using a liquid scintillation counter (ALOKA LSC-5100). […]

[4] = test system: complex consisting of EcR-DF and USP-DE; assay: [3H]ponasterone A binding experiment, charcoal dextran method, recombinants expressed in Escherichia coli; details: E. coli-expressed recombinants; 1.37 nM [3H]ponasterone A, 25° C., 40 minutes; FIG. 16
Description: as §4
In order to prevent the non-specific binding of ponasterone A to a receptor (a complex consisting of an EcR recombinant and a USP recombinant), 1% BSA was first added to a binding buffer (20 mM HEPES (pH7.4)/5 mM DTT/1 nM PMSF). Thereafter, USP-AE or USP-DE was mixed with the EcR-AF, EcR-DF, EcR-DE, EcR-EF, or EcR-E, purified in Example 2. Thereafter, [^3H]ponasterone A ([24, 25, 26, 27-3H] Ponasterone A (American Radiolabeled Chemicals Inc.)) with a final concentration of 1.37 nM was further added thereto. The obtained mixture was reacted at 25° C. […] A supernatant fraction obtained after centrifugation was mixed with a liquid scintillator, and the radioactivity (DPM) of the obtained mixture was measured using a liquid scintillation counter (ALOKA LSC-5100). […]

EcR or USP (single use) = assay: [3H]ponasterone A binding experiment, charcoal dextran method, single use of EcR or USP recombinant; details: regardless of length, FIG. 16
Description: as §4
as §3, with “Thereafter, USP-AE or USP-DE was mixed with the EcR-AF, EcR-DF, EcR-DE, EcR-EF, or EcR-E, purified in Example 2.” left out, “LSC-5100).” for “LSC-5100). The obtained measurement value was defined as the total binding amount. Moreover, the same experiment was carried out with the exception that nonradioactive ponasterone A that was 10,000 times stronger than [^3H]ponasterone A was added. Then, the amount of a ligand non-specifically binding to a receptor was obtained.”

EcR-DF/USP-AE complex [5] = assay: Scatchard analysis of binding of complex to [3H]ponasterone A; details: EcR-DF:USP-AE 1:1, FIG. 23, read-out: dissociation constant (Kd)
Description: In Example 6, using EcR-DF and USP-AE, the dissociation constant (Kd) of the complex to ponasterone A was obtained as follows. First, EcR-DF was mixed with USP-AE at a molar ratio of 1:1, and [^3H]ponasterone A with various concentrations was then added to the mixture. An activated carbon solution was added to the reaction solution to eliminate free ligands. The amount of the EcR-DF/USP-AE complex binding to [^3H]ponasterone A (total binding amount) was obtained by measuring the radioactivity of a supernatant fraction obtained after centrifugation. Moreover, the same experiment was carried out with the exception that nonradioactive ponasterone A that was 10,000 times stronger than [^3H]ponasterone A was added, so as to obtained non-specific binding. In FIG. 23, the horizontal axis indicates the specific bound amount of [^3H]ponasterone A (nM), the vertical axis indicates specific binding amount (bound)/total binding amount-specific binding amount (free).

[6] = coexpressed in COS-7 cells, FIG. 17 lanes 7 and 8
[7] = singly expressed in COS-7 cells, then mixed, FIG. 17 lanes 3 and 4

CCCCCCCCCc1ccc(O)cc1 [4-nonylphenol]
activity of binding to the EcR-DF/USP-AE complex (EcR-DF/USP-AE complex [1]): exhibited activity of binding; also recorded: exhibited strong binding activity

CC(C)(O)CC[C@@H](O)[C@](C)(O)[C@H]1CC[C@@]2(O)C3=CC(=O)[C@@H]4C[C@@H](O)[C@@H](O)C[C@]4(C)[C@H]3CC[C@]12C [20-hydroxyecdysone]
inhibition of the binding of [3H]ponasterone A to the complex (EcR-DF/USP-AE complex [1]): concentration-dependently inhibit | activity of binding to the complex (EcR-DF/USP-AE complex [1]): exhibited activity of binding

C[C@]12CC[C@@H]3c4ccc(O)cc4CC[C@H]3[C@@H]1CC[C@@H]2O [estradiol-17β]
activity of binding to the EcR-DF/USP-AE complex (EcR-DF/USP-AE complex [1]): exhibited activity of binding

CC(C)CC[C@@H](O)[C@](C)(O)[C@H]1CC[C@@]2(O)C3=CC(=O)[C@@H]4C[C@@H](O)[C@@H](O)C[C@]4(C)[C@H]3CC[C@]12C [ponasterone A]
binding to a ligand (ponasterone A) (EcR-DF and USP-AE; [6]): a strong binding to a ligand was observed | binding to a ligand (ponasterone A) (EcR-DF and USP-AE; [7]): no such bindings were observed | binding to a ligand (ponasterone A) (EcR-DF and USP-DE; [6]): a strong binding to a ligand was observed | binding to a ligand (ponasterone A) (EcR-DF and USP-DE; [7]): no such bindings were observed | time necessary for saturation of the binding ([2]; 25° C., 1.34 nM ponasterone A, EcR-DF:USP-AE 1:1): 60 min | ability to bind to a ligand (specific binding of [3H]ponasterone A) ([2]; E. coli-expressed recombinants, 1.37 nM [3H]ponasterone A, 25° C., 40 minutes, FIG. 16): had ability to bind | effect of salt (NaCl) concentration on specific binding of ligand to the complex ([2]; NaCl 0, 50, 100, 300, 500 mM, 25° C., FIG. 21): as the salt concentration increased, the specific binding of a ligand to the above complex decreased | time necessary for saturation of the binding ([2]; low-temperature chamber at 4° C.): 480 min | binding to a ligand (ponasterone A) ([3]; COS-7 extracts, coexpression and mixing after single expression, FIG. 17): no bindings to a ligand were observed | binding of the full-length EcR recombinant (EcR-AF) to ponasterone A ([3]; both Escherichia coli and mammalian cell expression systems): extremely weak | ability to bind to a ligand (specific binding of [3H]ponasterone A) [4]: had ability to bind | specific binding of [3H]ponasterone A (EcR or USP (single use)): no specific bindings were observed | Kd (EcR-DF/USP-AE complex [5]): 2.79 nM

CC/C(=C(/CC)c1ccc(O)cc1)c1ccc(O)cc1 [stilbestrol]
activity of binding to the EcR-DF/USP-AE complex (EcR-DF/USP-AE complex [1]): exhibited activity of binding; also recorded: exhibited strong binding activity

CCc1ccc(C(=O)NN(C(=O)c2cc(C)cc(C)c2)C(C)(C)C)cc1 [tebufenozide]
inhibition of the binding of [3H]ponasterone A to the complex (EcR-DF/USP-AE complex [1]): concentration-dependently inhibit | activity of binding to the complex (EcR-DF/USP-AE complex [1]): exhibited activity of binding
